Measured values as given in US11407771B2 (priority 2018, dated 2022).
pIC50: −log10 of the molar value. Like-named read-outs stand apart in the source and are kept apart here.

Key:
MAPK13 [1] = target: T1, MAPK13 (Homo sapiens (Human), UniProt O15264); test: biochemical
MAPK13 [2] = target: T1, MAPK13

T1 sequence (O15264 whole entry): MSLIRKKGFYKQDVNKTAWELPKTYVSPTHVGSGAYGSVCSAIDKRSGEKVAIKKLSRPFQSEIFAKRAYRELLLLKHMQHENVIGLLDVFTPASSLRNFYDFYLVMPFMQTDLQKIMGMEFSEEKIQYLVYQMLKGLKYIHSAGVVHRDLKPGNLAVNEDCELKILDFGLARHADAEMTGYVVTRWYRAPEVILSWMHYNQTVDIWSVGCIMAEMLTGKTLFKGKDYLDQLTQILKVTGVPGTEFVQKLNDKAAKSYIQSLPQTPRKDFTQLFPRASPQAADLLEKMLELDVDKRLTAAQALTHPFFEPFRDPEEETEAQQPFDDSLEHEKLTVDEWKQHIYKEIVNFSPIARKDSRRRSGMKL

pIC50 (MAPK13 [1])	Compound	pIC50 (MAPK13 [2]; read-out: MAPK13 inhibition)	pIC50 (MAPK13 [2]; read-out: MAPK13 IC50)
> 6.60	COCC(=O)Nc1cc(Oc2ccc(NC(=O)Nc3cc(C4(C)COC4)nn3-c3ccc(C)cc3)c(F)c2)ccn1 [Compound 267, N-[4-[3-fluoro-4-[[5-(3-methyloxetan-3-yl)-2-(p-tolyl)pyrazol-3-yl]carbamoylamino]phenoxy]-2-pyridyl]-2-methoxy-acetamide]	–	–
6.00 to 6.60	CC(=O)Nc1cc(CCc2ccc(NC(=O)Nc3cc(C(C)(C)C)nn3-c3ccc(F)cc3)c(F)c2)ccn1 [Compound 379, N-{4-[2-(4-{3-[5-tert-Butyl-2-(4-fluoro-phenyl)-2H-pyrazol-3-yl]-ureido}-3-fluoro-phenyl)-ethyl]-pyridin-2-yl}-acetamide]	–	–
6.00 to 6.60	CC(C)(C)c1cc(NC(=O)Nc2ncc(CCc3ccncc3)s2)no1 [Compound 387, 1-(5-tert-Butyl-isoxazol-3-yl)-3-[5-(2-pyridin-4-yl-ethyl)-thiazol-2-yl]-urea]	–	–
6.00 to 6.60	CC(=O)Nc1cc(COc2ccc(NC(=O)Nc3cc(C(C)(C)C)nn3CC3CC3)c(F)c2)ccn1 [Compound 413, N-(4-{4-[3-(5-tert-Butyl-2-cyclopropylmethyl-2H-pyrazol-3-yl)-ureido]-3-fluoro-phenoxymethyl}-pyridin-2-yl)-acetamide]	–	–
> 6.60	CC(=O)Nc1cc(Oc2ccc(NC(=O)Nc3cc(C(C)(C)C)nn3CC3CC3)c(F)c2)ccn1 [Compound 393, N-(4-{4-[3-(5-tert-Butyl-2-cyclopropylmethyl-2H-pyrazol-3-yl)-ureido]-3-fluoro-phenoxy}-pyridin-2-yl)-acetamide]	–	–
–	CC(=O)Nc1cc(CCc2ccc(NC(=O)Nc3cc(C(C)(C)C)no3)c(F)c2)ccn1 [Compound 359, N-[4-(2-{4-[3-(3-tert-Butyl-isoxazol-5-yl)-ureido]-3-fluoro-phenyl}-ethyl)-pyridin-2-yl]-acetamide]	< 6.00	–
–	Cc1ccc(-n2nc(C(C)(C)C)cc2NC(=O)Nc2ncc(CCc3ccnc(NC(=O)C4CC4)c3)s2)cc1 [Compound 331, Cyclopropanecarboxylic acid [4-(2-{2-[3-(5-tert-butyl-2-p-tolyl-2H-pyrazol-3-yl)-ureido]-thiazol-5-yl}ethyl)-pyridin-2-yl]-amide]	> 6.60	7.96
–	CC(C)(C)c1cc(NC(=O)Nc2ccc(CCc3ccnc(NC(=O)C4CC4)c3)cc2F)n(CC2CC2)n1 [Compound 372, Cyclopropanecarboxylic acid [4-(2-{4-[3-(5-tert-butyl-2-cyclopropylmethyl-2H-pyrazol-3-yl)-ureido]-3-fluoro-phenyl}-ethyl)-pyridin-2-yl]-amide]	< 6.00	–
–	COCC(=O)Nc1cc(Oc2ccc(NC(=O)Nc3cc(C4(C)COC4)nn3-c3ccc(C)cc3)cc2)ccn1 [Compound 259, 2-Methoxy-N-[4-(4-{3-[5-(3-methyl-oxetan-3-yl)-2-p-tolyl-2H-pyrazol-3-yl]-ureido}-phenoxy)-pyridin-2-yl]-acetamide]	> 6.60	–
–	CC(C)(C)c1ccc(Cl)c(NC(=O)Nc2ccc(Oc3ccnc(N)c3)cc2F)c1 [Compound 428, 1-[4-(2-Amino-pyridin-4-yloxy)-2-fluoro-phenyl]-3-(5-tert-butyl-2-chloro-phenyl)-urea]	< 6.00	–
–	Cc1ccc(-n2nc(C(C)(C)C)cc2NC(=O)Nc2ncc(CCc3ccnc(NC(=O)C4CCOCC4)c3)s2)cc1 [Compound 288, Tetrahydro-pyran-4-carboxylic acid [4-(2-{2-[3-(5-tert-butyl-2-p-tolyl-2H-1-pyrazol-3-yl)-ureido]-thiazol-5-yl}-ethyl)-pyridin-2-yl]-amide]	> 6.60	–
–	CC(C)(C)c1cccc(NC(=O)Nc2ccc(CCc3ccnc(NC(=O)C4CC4)c3)cc2F)c1 [Compound 376, Cyclopropancearboxylic acid [4-(2-{4-[3-(3-tert-butyl-phenyl)-ureido]-3-fluoro-phenyl}-ethyl)-pyridin-2-yl]-amide]	< 6.00	–
–	CC(C)(C)c1cc(NC(=O)Nc2ccc(CCc3ccnc(NC(=O)C4CC4)c3)cc2F)on1 [Compound 374, Cycloproprinecarboxylic acid [4-(2-{4-[3-(3-tert-butyl-isoxazol-5-yl)-ureido]-3-fluoro-phenyl}-ethyl)-pyridin-2-yl]-amide]	< 6.00	–
–	O=C(CO)Nc1cc(Oc2ccc(NC(=O)Nc3cc(C4CC4)ccc3F)c(F)c2)ccn1 [Compound 424, N-(4-{4-[3-(5-Cyclopropyl-2-fluoro-phenyl)-ureido]-3-fluoro-phenoxy}-pyridin-2-yl)-2-hydroxy-acetamide]	> 6.60	–
–	CC(=O)Nc1cc(Oc2ccc(NC(=O)Nc3cc(C(C)(C)C)nn3C(C)C)c(F)c2)ccn1 [Compound 392, N-(4-{4-[3-(5-tert-Butyl-2-isopropyl-2H-pyrazol-3-yl)-ureido]-3-fluoro-phenoxy}-pyridin-2-yl)-acetamide]	> 6.60	–
–	CC(C)(C)c1cc(NC(=O)Nc2ncc(CCc3ccnc(NC(=O)C4CCC4)c3)s2)n(CC2CC2)n1 [Compound 339, Cyclobutanecarboxylic acid [4-(2-{2-[3-(5-tert-butyl-2-cyclopropylmethyl-2H-pyrazol-3-yl)-ureido]-thiazol-5-yl}-ethyl)-pyridin-2-yl]-airdde]	> 6.60	–
–	CC(C)(C)c1cc(NC(=O)Nc2ncc(CCc3ccnc(NC(=O)C4CC4)c3)s2)n(CC2CC2)n1 [Compound 334, Cyclopropanecarboxylic acid [4-(2-{2-[3-(5-tert-butyl-2-cyclopropylmethyl-2H-pyrazol-3-yl)-ureido]-thiazol-5-yl}-ethyl)-pyridin-2-yl]-amide]	> 6.60	–

pIC50 (MAPK13 [1])	Compound	pIC50 (MAPK13 [2]; read-out: MAPK13 inhibition)	pIC50 (MAPK13 [2]; read-out: MAPK13 IC50)
–	CCNC(=O)Nc1cc(CCc2cnc(NC(=O)Nc3cc(C(C)(C)C)nn3-c3ccc(C)cc3)s2)ccn1 [Compound 284, 1-[4-(2-{2-[3-(5-tert-Butyl-2-p-tolyl-2H-pyrazol-3-yl)-ureido]-thiazol-5-yl}-ethyl)-pyridin-2-yl]-3-ethyl-urea]	> 6.60	–
–	CCNC(=O)Nc1cc(CCc2cnc(NC(=O)Nc3cc(C(C)(C)C)nn3C)s2)ccn1 [Compound 352, 1-[4-(2-{2-[3-(5-tert-Butyl-2-methyl-2H-pyrazol-3-yl)-ureido]-thiazol-5-yl}ethyl)-pyridin-2-yl]-3-ethyl-urea]	> 6.60	–
–	COCC(=O)Nc1cc(CCc2cnc(NC(=O)Nc3cc(C(C)(C)C)nn3C)s2)ccn1 [Compound 350, N-[4-(2-{2-[3-(5-tert-Butyl-2-methyl-2H-pyrazol-3-yl)-ureido]-thiazol-5-yl}-ethyl)-pyridin-2-yl]-2-methoxy-acetamide]	> 6.60	–
–	CC(C)(C)c1cc(NC(=O)Nc2ncc(CCc3ccnc(NC(=O)C4CC4)c3)s2)no1 [Compound 369, Cyclopropanecarboxylic acid [4-(2-{2-[3-(5-tert-butyl-isoxazol-3-yl)-ureido]-thiazol-5-yl}-ethyl)-pyridin-2-yl]-amide]	> 6.60	–
–	CC(=O)Nc1cc(Oc2ccc(NC(=O)Nc3cc(C(C)(C)C)no3)c(F)c2)ccn1 [Compound 395, N-(4-{4-[3-(3-tert-Butyl-isoxazol-5-yl)-ureido]-3-fluoro-phenoxy}-pyridin-2-yl)-acetamide]	> 6.60	7.96
–	CC(C)(C)c1cc(NC(=O)Nc2ccc(Oc3ccncc3)cc2F)n(-c2cccc(F)c2)n1 [Compound 306, 1-[5-tert-butyl-2-(3-fluorophenyl)pyrazol-3-yl]-3-[2-fluoro-4-(4-pyridyloxy)phenyl]urea]	> 6.60	–
–	CC(=O)Nc1cc(CCc2cnc(NC(=O)Nc3cc(C(C)(C)C)on3)s2)ccn1 [Compound 366, N-[4-(2-{2-[3-(5-tert-Butyl-isoxazol-3-yl)-ureido]-thiazol-5-yl}-ethyl)-pyridin-2-yl]-acetamide]	> 6.60	–
–	CC(C)(C)c1cc(NC(=O)Nc2ccc(CCc3ccnc(NC(=O)C4CC4)c3)cc2F)no1 [Compound 378, Cyclopropanecarboxylic acid [4-(2-{4-[3-(5-tert-butyl-isoxazol-3-yl)-ureido]-3-fluoro-phenyl}-ethyl)-pyridin-2-yl]-amide]	< 6.00	–
–	CC(C)(C)c1ccc(Cl)c(NC(=O)Nc2ncc(CCc3ccncc3)s2)c1 [Compound 388, 1-(5-tert-Butyl-2-chloro-phenyl)-3-[5-(2-pyridin-4-yl-thiazol)-thiazol-2-yl]-urea]	< 6.00	–
–	CC(=O)Nc1cc(Oc2ccc(NC(=O)Nc3cc(C(C)(C)C)on3)c(F)c2)ccn1 [Compound 394, N-(4-{4-[3-(5-tert-Butyl-isoxazol-3-yl)-ureido]-3-fluoro-phenoxy}-pyridin-2-yl)-acetamide]	> 6.60	8.05
–	COCCC(=O)Nc1cc(CCc2cnc(NC(=O)Nc3cc(C(C)(C)C)nn3CC3CC3)s2)ccn1 [Compound 342, N-[4-(2-{2-[3-(5-tert-Butyl-2-cyclopropylmethyl-2H-pyrazol-3-yl)-ureido]-thiazol-5-yl}-ethyl)-pyridin-2-yl]-3-methoxy-propionamide]	> 6.60	–
–	COCCC(=O)Nc1cc(Oc2ccc(NC(=O)Nc3cc(C4CC4)ccc3F)c(F)c2)ccn1 [Compound 425, N-(4-{4-[3-(5-Cyclopropyl-2-fluoro-phenyl)-ureido]-3-fluoro-phenoxy}-pyridin-2-yl)-3 methoxypropionamide]	> 6.60	–
–	CC(=O)Nc1cc(CCc2ccc(NC(=O)Nc3cccc(C(C)(C)C)c3)c(F)c2)ccn1 [Compound 377, N-[4-(2-{4-[3-(3-tert-Butyl-phenyl)-ureido]-3-fluoro-phenyl}-ethyl)-pyridin-2-yl]-acetamide]	< 6.00	–
–	CC(C)n1nc(C(C)(C)C)cc1NC(=O)Nc1ncc(CCc2ccncc2)s1 [Compound 389, 1-(5-tert-Butyl-2-isopropyl-2H-pyrazol-3-yl)-3-[5-(2-pyridin-4-yl-ethyl)-thiazol-2-yl]-urea]	< 6.00	–
–	CC(=O)Nc1cc(CCc2ccc(NC(=O)Nc3cc(C(C)(C)C)nn3C)c(F)c2)ccn1 [Compound 361, N-[4-(2-{4-[3-(5-tert-Butyl-2-methyl-2H-pyrazol-3-yl)-ureido]-3-fluoro-phenyl}-ethyl)-pyridin-2-yl]-acetamide]	< 6.00	–
–	Cn1nc(C(C)(C)C)cc1NC(=O)Nc1ncc(CCc2ccnc(NC(=O)C3CCC3)c2)s1 [Compound 353, Cyclobutanecarboxylic acid [4-(2-{2-[3-(5-tert-butyl-2-methyl-2H-pyrazol-3-yl)-ureido]-thiazol-5-yl}-ethyl)-pyridin-2-yl]-amide]	> 6.60	–
